Experimental data reported in patent US8778310B2, “Fluorescent chlorotoxin conjugate and method for intra-operative visualization of cancer” (priority 2005, dated 2014).

Columns and labels:
[1] = system: glioma and normal brain histologic sections; test: Staining of histologic sections of glioma and normal brain; set-up: species or system human
9L glioma cells = test: In vitro imaging of CTX:Cy5.5 binding to 9L glioma cells (NIR/confocal microscopy); format: cell-based, rat; details: pre-incubation with MMP-2 inhibitor
Description: 9L/lacZ gliosarcoma cells (ATCC, VA) and primary human foreskin fibroblast (HFF) were maintained in DMEM and RPMI medium both supplemented with 1% sodium pyruvate, 1% streptomycin/penicillin and 10% FBS (Hyclone, UT), respectively. 2×10^5 cells were seeded on sterile cover slips 36 hrs prior to labeling and confocal microscopy. Cells were cultured with 1 ml of CTX:CY5.5 conjugate (1 uM) for 2 hours in a 37° C. humidified incubator maintained at 5% CO2. Cover slips were washed 2 times in cell culture medium and 2 times in PBS buffer. Following this step, cell membranes were stained with 1 μM solution of FM 1-43FX (Molecular Probes, OR) for 20 min in dark at room temperature, washed 2 times in PBS and fixed in 4% paraformaldehyde. Cellular nuclei were stained with 4′,6-diamidino-2-phenylndole (DAPI, Sigma Aldrich, MO).
Confocal images were acquired using a DeltaVision SA3.1 Wide-Field Deconvolution Microscope (Applied Precision, WA) equipped with DAPI, TRITC, and Cy5 filters. Image processing was performed using SoftWoRX (Applied Precision, WA).
To determine whether CTX retained specific binding to glioma cells after conjugation to Cy5.5, we incubated the conjugate with 9L glioma cells and primary fibroblasts and evaluated binding by NIR microscopy. […]

9L glioma xenografts = test: In vivo biophotonic imaging of mice with 9L glioma xenografts; set-up: species or system mouse; details: versus control mice without 1,10-phenanthroline
Description: All mouse studies were conducted in accordance with IACUC approved protocols. Subcutaneous xenografts were established in nu/nu (nude) mice using 9L, a rat gliosarcoma cell line (ATCC), and RH30, a rhabdomyosarcoma cell line. The xenografts were established using 1 million 9L or RH30 cells suspended in serum free media and matrigel at a 1:1 ratio. Intracranial xenografts were established by stereotaxic injection of 1 million 9L cells suspended in 10 μl PBS into the brain 3 mm lateral and posterior to the bregma. ND2:SmoA1 medulloblastoma mice, TRAMP prostate cancer mice and Apc^1638N intestinal adenoma and adenocarcinoma mice were as previously described. See, Fodde, R., et al., A targeted chain-termination mutation in the mouse Apc gene results in multiple intestinal tumors. Proc. Natl. Acad. Sci. U.S.A., 1994. 91(19): p. 8969-73; Greenberg, N. M., et al., Prostate cancer in a transgenic mouse. Proc. Natl. Acad. Sci. U.S.A., 1995. 92(8): p. […]
CTX:Cy5.5 (0.1-0.2 ml of 10-20 μM) was administered intravenously by tail vein injection. […] Relevant organs and tumors were dissected from some of the animals and fluorescence image were obtained immediately following dissection. In time course experiments, all images were captured using identical system settings and fluorescence emission was normalized to photons per second per centimeter squared per steradian (p/s/cm^2/sr).

[2] = format: in vivo, mouse
Description: To further assess potential CTX toxicity at doses used for optical imaging, complete necropsy was performed on mice two weeks after exposure to CTX.

[3] = previously reported; cited from earlier work

Cy5.5
staining of glioma section [1]: does not stain glioma

c1cnc2c(c1)ccc1cccnc12 [1,10-phenanthroline]
Binding of CTX:Cy5.5 to 9L glioma cells after pre-incubation with 1,10-phenanthroline (9L glioma cells): blocked
Specific binding of CTX:Cy5.5 in mice pre-treated with 1,10-phenanthroline (9L glioma xenografts): six-fold lower

chlorotoxin [CTX]
laboratory evaluation (electrolytes, blood counts, liver and kidney function) ([2]; doses used for optical imaging): no alteration
toxicity overall ([2]; doses used for optical imaging): no toxicity could be detected
pathologic changes in organs (necropsy) ([2]; doses used for optical imaging, b143: two weeks after exposure): indistinguishable from control mice
open field observation ([2]; injected mice versus control mice): indistinguishable from control mice
locomotor activity in mice [3]: reduce locomotor activity
